Patent US20240165259A1, “BIOORTHOGONAL REACTION SUITABLE FOR CLICK/UNCLICK APPLICATIONS” (DANA-FARBER CANCER INSTITUTE, INC., priority 2021, published 2024)

Molecular target: T1, HaloTag protein (Rhodococcus rhodochrous, UniProt P0A3G2, A155T/A167V/A172T/A224E/C128F/C176G/D78G/E160K/E257K/H272N/K175M/K195N/L47V/L88M/N227D/S58T/T264A/Y273L/Y87F)
T1 construct: made in house; host or cells: E. coli (the text prints transformation into DH5a; BL21(DE3) was also purchased)
Test: HaloTag protein labeling, in-gel fluorescence (time- and concentration-dependent)
Format: biochemical
Settings: HaloTag protein conjugated to alkyne 21′, 200 μM 22′, room temperature
Experimental: The viability of the reaction was evaluated both in vitro and in cells (FIG. 14A-FIG. 14B). Purified recombinant HaloTag protein (Los et al., ACS Chem. Biol. 3(6):373-382 (2008); Murrey et al., J. Am. Chem. Soc. 137(35):11461-11475 (2015)) was incubated with HaloTag linker-conjugated difluoropropargyl ether 21′ for 10 minutes at room temperature in pH 7.0 phosphate buffer to provide alkyne-conjugated protein. This protein was then treated with 200 μM TAMRA-N-methylhydroxylamine 22′ and analyzed at various time points by in-gel fluorescence.
Buffer A: pH 7.0, 50 mM NaH2PO4, 20 mM NaCl
A stock solution of HaloTag® protein (15.3 μL, 2.01 mg/mL in buffer A) was added to 29.7 μL of buffer A to prepare a HaloTag® working solution (solution A, 19.7 μM, 45 μL). […]
A solution of alkyne 21′ in DMSO (700 μM) was added to reactions C (0.22 μL) and D (1.10 μL). […] In-gel fluorescence was imaged with a Typhoon™ FLA 9500 (GE) at 532 nm with a photomultiplier tube (PMT) setting of 500 V. The experiment was carried out in triplicate (FIG. 21A-FIG. 21B). […]
A solution of alkyne 21′ in DMSO (700 μM) was added to reactions C (0.22 μL) and D (0.88 μL). […] In-gel fluorescence was imaged with a Typhoon™ FLA 9500 (GE) at 532 nm with a photomultiplier tube (PMT) setting of 500 V. The experiment was carried out in triplicate (FIG. 22A-FIG. 22B).

T1 sequence (P0A3G2 other isoform, or with tags, fused parts or gaps with the stated changes): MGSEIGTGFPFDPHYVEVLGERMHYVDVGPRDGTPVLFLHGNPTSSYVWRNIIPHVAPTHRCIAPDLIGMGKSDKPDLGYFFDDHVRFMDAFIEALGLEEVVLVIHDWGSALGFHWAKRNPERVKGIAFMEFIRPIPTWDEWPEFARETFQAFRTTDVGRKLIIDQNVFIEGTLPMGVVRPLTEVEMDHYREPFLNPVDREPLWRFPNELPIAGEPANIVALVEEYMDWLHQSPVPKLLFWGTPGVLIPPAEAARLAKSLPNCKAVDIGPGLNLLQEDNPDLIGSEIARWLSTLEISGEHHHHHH

With `CN(O)CCOCCNC(=O)c1ccc2c(c1)C1(OC2=O)c2ccc(N(C)C)cc2Oc2cc(N(C)C)ccc21` [compound 13, 3′,6′-bis(dimethylamino)-N-(2-(2-(hydroxy(methyl)amino)ethoxy)ethyl)-3-oxo-3H-spiro[isobenzofuran-1,9′-xanthene]-6-carboxamide] the “time at which fluorophore-labeled protein was observed” value was ≤ 1 min.
